# From patent publication US8318941B2, “Pyridone/hydroxypyridine 11-beta hydroxysteroid dehydrogenase type I inhibitors” (Bristol-Myers Squibb Company, priority 2006, dated 2012)
# Target: T1, 11beta-HSD1 (Homo sapiens, UniProt P28845)
# Assay: not given
# Set-up: host or cells: patients (liver), in vivo
# Settings: patients with type 2 diabetes, seven day treatment, versus placebo; cited from earlier work
# T1 sequence (P28845 whole entry): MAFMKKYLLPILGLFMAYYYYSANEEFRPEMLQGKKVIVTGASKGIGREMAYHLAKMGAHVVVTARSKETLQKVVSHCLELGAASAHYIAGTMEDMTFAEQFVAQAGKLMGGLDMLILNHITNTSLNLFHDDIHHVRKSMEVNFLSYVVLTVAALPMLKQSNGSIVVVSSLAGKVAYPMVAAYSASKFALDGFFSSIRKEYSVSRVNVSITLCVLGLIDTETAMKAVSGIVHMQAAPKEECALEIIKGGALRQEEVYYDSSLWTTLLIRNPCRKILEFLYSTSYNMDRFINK
row,Molecule,hepatic glucose production
1,CC1(C)[C@@H](OC(=O)CCC(=O)O)CC[C@]2(C)[C@H]3C(=O)C=C4[C@@H]5C[C@@](C)(C(=O)O)CC[C@]5(C)CC[C@@]4(C)[C@]3(C)CC[C@@H]12 [carbenoxolone],decrease in hepatic glucose production

# Target: T1, 11beta-HSD1
# Assay: In vitro inhibition of recombinant human 11beta-HSD1 (microsomal Scintillation Proximity Assay)
# Format: biochemical
# Set-up: made in house; microsomal fraction used as enzyme source
# Settings: microsomes from HEK 293 EBNA cells, 250 nM [3H]-cortisone, 500 μM NADPH, pH 6.5, room temperature
# Procedure: The in vitro inhibition of recombinant human 11beta-HSD1 was determined as follows.
# Cells were grown in DMEM (high glucose) containing MEM non-essential amino acids, L-glutamine, hygromycine B (200 ug/ml), and G418(200 ug/ml). The cell pellets were homogenized, and the microsomal fraction was obtained by differential centrifugation. 11beta-HSD1 over expressed microsomes were used as the enzyme source for the Scintillation Proximity Assay (SPA). […] The reaction was terminated with the addition of 1 mM 18β-glycerrhentic acid. SPA reagent mixture (YSi anti-rabbit IgG, anti-cortisol antibody in 50 mM Tris, pH 8.0 containing 1% CHAPS and 1% glycerol) was added and the reaction was further incubated at room temperature over night and counted in TopCount. […]
row,Molecule,IC50 [nM]
1,Oc1cc2c(c(SCc3ccccc3Cl)n1)N1CCC2CC1 [Example 29],> 10000
2,N#Cc1c(O)nc(SCc2cccnc2Cl)c2c1CCCC2 [Example 32],2.73
3,N#Cc1c(O)nc(SCc2ccccc2Cl)c2c1CCNC2 [Example 35],460
4,N#Cc1c(O)nc(SCc2cc(F)ccc2F)c2cc(F)ccc12 [Example 175],2.58
5,N#Cc1ccccc1-c1c(O)nc(SCc2ccccc2Cl)c2c1CCCC2 [Example 292],288

# The remaining lines, values ahead:
row,IC50 [nM],Molecule
1,> 10000,"NC(=O)c1c(O)nc(SCc2ccccc2Cl)c2c1CCCC2 [Example 3, 1-(2-Chlorobenzylthio)-3-hydroxy-5,6,7,8-tetrahydroisoquinoline-4-carboxamide]"
2,470,"O=C(O)c1c(O)nc(SCc2ccccc2Cl)c2c1CCCC2 [Example 6, 1-(2-Chlorobenzylthio)-3-hydroxy-5,6,7,8-tetrahydroisoquinoline-4-carboxylic acid]"
3,780,Oc1nc(SCc2cccc(Cl)c2)c2ccccc2c1Cl [Example 115]
4,530,O=S(=O)(Cc1cccc(Cl)c1)c1nc(O)c(Cl)c2ccccc12 [Example 118]
5,2.7,N#Cc1ccccc1CSc1nc(O)c(Cl)c2ccccc12 [Example 130]
6,2.26,N#Cc1ccccc1CSc1nc(O)c(Cl)c2ccc(Cl)cc12 [Example 132]
7,2.73,N#Cc1c(O)nc(SCc2cnccc2Cl)c2cc(F)ccc12 [Example 164]
8,1.49,N#Cc1ccncc1CSc1nc(O)c(C#N)c2ccc(F)cc12 [Example 170]
9,3,N#Cc1cccc(Cl)c1CSc1nc(O)c(C#N)c2ccc(F)cc12 [Example 181]

# Same assay, conditions: read-out: IC50 (concentration of compound required for 50% inhibition of cortisol formation); microsomes from HEK 293 EBNA cells, 250 nM [3H]-cortisone, 500 μM NADPH, pH 6.5, room temperature
row,IC50 [nM],Molecule
1,671,"4,7-Dichloro-1-(2-chlorobenzylthio)isoquinolin-3-ol [Example 109]"
